Measurements from patent publication US20070128217A1 (priority 2003, published 2007).

Key:
[1] = tested on: antibodies in sera from SARS patients (sera 1a, 1b, 2, 6, 37, 62, London, SARS-yellow, SARS-green); type: binding, human; design: Binding of serum 6 to linear peptides of protein X1 of SARS-CoV Urbani / Binding of serum 37 to linear peptides of protein X1 of SARS-CoV Urbani / Binding of serum 6 to looped/cyclic peptide (PEPSCAN-ELISA) / Binding of serum 37 to looped/cyclic peptide (PEPSCAN-ELISA) / Binding of serum 37 to looped/cyclic peptides of protein X1 of SARS-CoV Urbani / Binding of serum 6 to linear peptides of protein X2 / Binding of serum 37 to linear peptides of protein X2 / Binding of serum 37 to looped/cyclic peptides of protein X2 of SARS-CoV Urbani / Binding of serum 6 to linear peptides of protein M of SARS-CoV Urbani / Binding of serum 37 to linear peptides of protein M of SARS-CoV Urbani / Binding of serum 6 to looped/cyclic peptides of protein M of SARS-CoV Urbani / Binding of serum 37 to looped/cyclic peptides of protein M of SARS-CoV Urbani / Binding of serum 6 to linear peptides of protein X3 of SARS-CoV Urbani / Binding of serum 37 to linear peptides of protein X3 of SARS-CoV Urbani / Binding of serum 37 to looped/cyclic peptides of protein X3 of SARS-CoV Urbani / Binding of serum 6 to linear peptides of protein X4 of SARS-CoV Urbani / Binding of serum 37 to linear peptides of protein X4 of SARS-CoV Urbani / Binding of serum 37 to looped/cyclic peptides of protein X4 of SARS-CoV Urbani / Binding of serum 6 to linear peptides of protein X5 of SARS-CoV Urbani / Binding of serum 37 to linear peptides of protein X5 of SARS-CoV Urbani / Binding of serum 37 to looped/cyclic peptides of protein X5 of SARS-CoV Urbani / Binding of serum 6 to linear peptides of protein N of SARS-CoV Urbani / Binding of serum 37 to linear peptides of protein N of SARS-CoV Urbani / Binding of serum 6 to linear peptide (PEPSCAN-ELISA) / Binding of serum 1a to looped/cyclic peptides of protein N of SARS-CoV Urbani / Binding of serum 1b to looped/cyclic peptides of protein N of SARS-CoV Urbani / Binding of serum 2 to looped/cyclic peptides of protein N of SARS-CoV Urbani / Binding of serum 6 to looped/cyclic peptides of protein N of SARS-CoV Urbani / Binding of serum 37 to looped/cyclic peptides of protein N of SARS-CoV Urbani / Binding of serum 62 to looped/cyclic peptides of protein N of SARS-CoV Urbani / Binding of serum London to looped/cyclic peptides of protein N of SARS-CoV Urbani / Binding of serum SARS-green to looped/cyclic peptides of protein N of SARS-CoV Urbani: unit not given here
[2] = tested on: rabbit serum obtained by immunizing a rabbit with the SARS-CoV strain Frankfurt 1; type: binding; design: Binding of a rabbit serum to linear peptides / Binding of a rabbit serum to looped peptides / Rabbit serum linear peptides / Rabbit serum looped peptides / Binding of a rabbit serum to linear peptides of protein N of SARS-CoV Urbani (Rabbit serum linear peptides) / Binding of a rabbit serum to looped/cyclic peptides of protein N of SARS-CoV Urbani (Rabbit serum looped peptides): unit not given here
[3] = tested on: control sera (pooled serum of ten healthy LUMC hospital workers; commercial negative donor pooled serum from the Dutch bloodbank); type: binding, human; design: Binding of Control serum LUMC to linear peptides / Binding of Control serum Blood-bank to linear peptides / Binding of Control serum LUMC to looped peptides / Binding of Control Serum Blood-Bank to Looped peptides / Binding of Control serum LUMC to linear peptides of the protein M of SARS-CoV Urbani / Binding of Control serum Blood-bank to linear peptides of the protein M of SARS-CoV Urbani / Binding of Control serum LUMC to looped peptides of the protein M of SARS-CoV Urbani / Binding of Control Serum Blood-Bank to Looped peptides of the protein M of SARS-CoV Urbani: unit not given here
[4] = tested on: recombinant human anti-SARS-CoV antibody 03-018; type: binding; design: Binding of antibody 03-018 to linear peptides of the N protein of SARS-CoV Urbani / Binding of antibody 03-018 to looped/cyclic peptides of the N protein of SARS-CoV Urbani: unit not given here

Sequence	Binding of serum 1a to linear peptides of protein N of SARS-CoV Urbani [1]	Binding of serum 1a to looped/cyclic peptides of protein N of SARS-CoV Urbani [1]	Binding of serum 1b to linear peptides of protein N of SARS-CoV Urbani [1]	Binding of serum 1b to looped/cyclic peptides of protein N of SARS-CoV Urbani [1]	Binding of serum 2 to linear peptides of protein N of SARS-CoV Urbani [1]	Binding of serum 2 to looped/cyclic peptides of protein N of SARS-CoV Urbani [1]	Binding of serum 6 to looped/cyclic peptides of protein N of SARS-CoV Urbani [1]	Binding of serum 37 to looped/cyclic peptides of protein N of SARS-CoV Urbani [1]	Binding of serum 62 to looped/cyclic peptides of protein N of SARS-CoV Urbani [1]	Binding of serum London to looped/cyclic peptides of protein N of SARS-CoV Urbani [1]	Binding of serum SARS-green to looped/cyclic peptides of protein N of SARS-CoV Urbani [1]	Binding of serum SARS-yellow to looped/cyclic peptides of protein N of SARS-CoV Urbani [1]	Binding of a rabbit serum to linear peptides of protein N of SARS-CoV Urbani (Rabbit serum linear peptides) [2]	Binding of a rabbit serum to looped/cyclic peptides of protein N of SARS-CoV Urbani (Rabbit serum looped peptides) [2]	Binding of Control Serum Blood-Bank to Looped peptides [3]	Binding of Control serum Blood-bank to linear peptides [3]	Binding of Control serum LUMC to linear peptides [3]	Binding of Control serum LUMC to looped peptides [3]	Binding of antibody 03-018 to linear peptides of the N protein of SARS-CoV Urbani [4]	Binding of antibody 03-018 to looped/cyclic peptides of the N protein of SARS-CoV Urbani [4]	also measured
GPTDSTDNNQNGGRN	0.3	0.4	0.2	0.4	0.4	0.6	0.3	0.9	0.6	0.5	1.4	0.4	0.1	0.4	0.6	0.8	0.7	0.5	0.2	0.2	Binding of serum 6 to linear peptides of protein N of SARS-CoV Urbani [1]: 0.2; Binding of serum 37 to linear peptides of protein N of SARS-CoV Urbani [1]: 0.8; Binding of serum 62 to linear peptides of protein N of SARS-CoV Urbani [1]: 0.6; Binding of serum London to linear peptides of protein N of SARS-CoV Urbani [1]: 0.6; Binding of serum SARS-green to linear peptides of protein N of SARS-CoV Urbani [1]: 0.6; Binding of serum SARS-yellow to linear peptides of protein N of SARS-CoV Urbani [1]: 0.6
GQGVPINTNSGPDDQ	0.3	0.2	0.1	0.1	0.2	0.3	0.1	0.4	0.1	0.3	0.1	0.1	0.1	0.0	0.5	0.5	0.5	0.3	0.1	0.2	Binding of serum 6 to linear peptides of protein N of SARS-CoV Urbani [1]: 0.2; Binding of serum 37 to linear peptides of protein N of SARS-CoV Urbani [1]: 0.8; Binding of serum 62 to linear peptides of protein N of SARS-CoV Urbani [1]: 0.6; Binding of serum London to linear peptides of protein N of SARS-CoV Urbani [1]: 0.6; Binding of serum SARS-green to linear peptides of protein N of SARS-CoV Urbani [1]: 0.5; Binding of serum SARS-yellow to linear peptides of protein N of SARS-CoV Urbani [1]: 0.6
GQQQQGQTVTKKSAA	–	0.2	–	0.1	–	0.3	0.1	0.4	0.4	0.3	0.1	0.1	0.2	0.1	0.5	0.9	0.9	0.5	0.1	0.2	Binding of serum 1a to linear peptide (PEPSCAN-ELISA) [1]: 0.3; Binding of serum 1b to linear peptide (PEPSCAN-ELISA) [1]: 0.1; Binding of serum 2 to linear peptide (PEPSCAN-ELISA) [1]: 0.3; Binding of serum 6 to linear peptide (PEPSCAN-ELISA) [1]: 0.3; Binding of serum 37 to linear peptide (PEPSCAN-ELISA) [1]: 0.8; Binding of serum 62 to linear peptide (PEPSCAN-ELISA) [1]: 0.8; Binding of serum London to linear peptide (PEPSCAN-ELISA) [1]: 0.5; Binding of serum SARS-green to linear peptide (PEPSCAN-ELISA) [1]: 0.1; Binding of serum SARS-yellow to linear peptide (PEPSCAN-ELISA) [1]: 0.5
GQTVTKKSAAEASKK	–	0.2	–	0.1	–	0.2	0.1	0.4	0.2	0.3	0.0	0.2	0.2	0.2	0.4	0.7	0.7	0.3	0.1	0.2	Recognition of the peptide by sera of SARS-CoV infected individuals, and form (linear, looped/cyclic) in which it is recognized [1]: recognized in linear form
GSQASSRSSSRSRGN	–	0.4	–	0.2	–	0.4	0.3	0.7	0.6	0.5	0.1	0.5	0.2	0.7	0.6	0.8	0.8	0.6	0.1	0.2	Binding of serum 1a to linear peptide (PEPSCAN-ELISA) [1]: 0.3; Binding of serum 1b to linear peptide (PEPSCAN-ELISA) [1]: 0.1; Binding of serum 2 to linear peptide (PEPSCAN-ELISA) [1]: 0.4; Binding of serum 6 to linear peptide (PEPSCAN-ELISA) [1]: 0.4; Binding of serum 37 to linear peptide (PEPSCAN-ELISA) [1]: 0.7; Binding of serum 62 to linear peptide (PEPSCAN-ELISA) [1]: 0.6; Binding of serum London to linear peptide (PEPSCAN-ELISA) [1]: 0.6; Binding of serum SARS-green to linear peptide (PEPSCAN-ELISA) [1]: 0.3; Binding of serum SARS-yellow to linear peptide (PEPSCAN-ELISA) [1]: 0.7
